Test results reported in patent publication US12692254B2, “Benzimidazole inhibitors of PAD enzymes” (BRISTOL-MYERS SQUIBB COMPANY, priority 2018, dated 2026).

Target: human PAD4 (hPAD4) (Homo sapiens, UniProt Q9UM07)
Assay: RFMS human PAD4 functional assay (rapid-fire mass spectrum)
Format: biochemical
Details: 5 nM hPAD4 enzyme, 250 μM BAEE, 50 μM Calcium; 30 min preincubation, 90 min reaction at 37° C.
Procedure, shortened: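 PAD4 (10 nM) preincubated 30 min with compound (top final 50 μM), then BAEE substrate added in pH 7.5 HEPES buffer with DTT, 50 μM calcium, TPEN; 90 min at 37° C. After TCA quench, citrulline derivatized with phenyl glyoxal (4 mM final, 30 min, 37° C) and quantified by RapidFire MS against internal standard.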

human PAD4 (hPAD4), sequence (Q9UM07 whole entry): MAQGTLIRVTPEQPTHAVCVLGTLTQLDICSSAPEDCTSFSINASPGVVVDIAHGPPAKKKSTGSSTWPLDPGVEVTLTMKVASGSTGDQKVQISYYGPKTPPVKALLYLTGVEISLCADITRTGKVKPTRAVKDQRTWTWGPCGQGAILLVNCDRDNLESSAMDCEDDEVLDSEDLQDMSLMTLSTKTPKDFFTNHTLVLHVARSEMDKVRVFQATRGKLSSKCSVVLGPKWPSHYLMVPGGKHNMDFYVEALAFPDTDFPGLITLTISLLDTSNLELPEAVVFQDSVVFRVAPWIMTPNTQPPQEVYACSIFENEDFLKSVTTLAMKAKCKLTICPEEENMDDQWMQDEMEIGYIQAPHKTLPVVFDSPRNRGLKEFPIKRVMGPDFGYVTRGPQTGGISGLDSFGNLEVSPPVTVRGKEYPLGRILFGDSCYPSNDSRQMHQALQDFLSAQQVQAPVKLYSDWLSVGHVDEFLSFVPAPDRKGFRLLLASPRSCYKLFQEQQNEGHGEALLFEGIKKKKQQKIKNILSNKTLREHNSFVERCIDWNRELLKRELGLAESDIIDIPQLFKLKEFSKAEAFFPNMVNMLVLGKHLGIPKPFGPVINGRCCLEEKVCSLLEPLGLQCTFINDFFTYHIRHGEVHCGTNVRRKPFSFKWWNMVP

SMILES | IC50
COc1cc(C(=O)N2CC3CCC2[C@@H]3N)cc2nc(-c3cc4ccccc4n3CC3CC3)n(Cc3cnn(-c4cccnc4)c3)c12 (stereo partly drawn) [Example 368, (7R)-2-{2-[1-(cyclopropylmethyl)-1H-indol-2-yl]-7-methoxy-1-{[1-(pyridin-3-yl)-1H-pyrazol-4-yl]methyl}-1H-1,3-benzodiazole-5-carbonyl}-2-azabicyclo[2.2.1]heptan-7-amine] | 29 nM
COc1cc(C(=O)N2CC3CCC2[C@@H]3N)cc2nc(-c3cc4cccnc4n3CC3CC3)n(Cc3cnn(-c4cnccn4)c3)c12 (stereo partly drawn) [Example 373, (7R)-2-{2-[1-(cyclopropylmethyl)-1H-pyrrolo[2,3-b]pyridin-2-yl]-7-methoxy-1-{[1-(pyrazin-2-yl)-1H-pyrazol-4-yl]methyl}-1H-1,3-benzodiazole-5-carbonyl}-2-azabicyclo[2.2.1]heptan-7-amine] | 34 nM
COc1cc(C(=O)N2CC3CCC2[C@@H]3N)cc2nc(-c3cc4ccccc4n3CC3CC3)n(Cc3ccccc3)c12 (stereo partly shown) [Example 270] | 140 nM
COc1cc(C(=O)N2C[C@H]3CC[C@@H]2[C@@H]3N)cc2nc(-c3cc4cccnc4n3CC3CC3)n(C3CCN(C(=O)c4ccnc(C#N)c4)CC3)c12 [Example 240, 4-(4-{5-[(1R,4R,7R)-7-amino-2-azabicyclo[2.2.1]heptane-2-carbonyl]-2-[1-(cyclopropylmethyl)-1H-pyrrolo[2,3-b]pyridin-2-yl]-7-methoxy-1H-1,3-benzodiazol-1-yl}piperidine-1-carbonyl)pyridine-2-carbonitrile] | 1440 nM
COc1cc(C(=O)N2C[C@H]3CC[C@@H]2[C@@H]3N)cc2nc(-c3cc4ccccc4n3CC3CC3)n(Cc3ccc(N)nc3)c12 [Example 244, (1R,4R,7R)-2-{1-[(6-aminopyridin-3-yl)methyl]-2-[1-(cyclopropylmethyl)-1H-indol-2-yl]-7-methoxy-1H-1,3-benzodiazole-5-carbonyl}-2-azabicyclo[2.2.1]heptan-7-amine] | 11 nM
COc1cc(C(=O)N2C[C@H]3CC[C@@H]2[C@@H]3N)cc2nc(-c3cc4ccccc4n3C)n(CC3CN(C(=O)c4ccccc4)C3)c12 [Example 181, (1R,4R,7R)-2-{1-[(1-benzoylazetidin-3-yl)methyl]-7-methoxy-2-(1-methyl-1H-indol-2-yl)-1H-1,3-benzodiazole-5-carbonyl}-2-azabicyclo[2.2.1]heptan-7-amine] | 101 nM
COc1cc(C(=O)N2C[C@H](N)C[C@@H](F)C2)cc2nc(-c3cc4ccccc4n3CC3CC3)n(Cc3cc(C)nn3C)c12 [Example 276, (3R,5R)-1-{2-[1-(cyclopropylmethyl)-1H-indol-2-yl]-1-[(1,3-dimethyl-1H-pyrazol-5-yl)methyl]-7-methoxy-1H-1,3-benzodiazole-5-carbonyl}-5-fluoropiperidin-3-amine] | 298 nM
COc1cc(C(=O)N2C[C@H]3CC[C@@H]2[C@@H]3N)cc2nc(-c3cc4cccnc4n3CC3CC3)n(CC3CN(c4cccc5c4CNC5=O)C3)c12 [Example 55, 4-[3-({5-[(1R,4R,7R)-7-amino-2-azabicyclo[2.2.1]heptane-2-carbonyl]-2-[1-(cyclopropylmethyl)-1H-pyrrolo[2,3-b]pyridin-2-yl]-7-methoxy-1H-1,3-benzodiazol-1-yl}methyl)azetidin-1-yl]-2,3-dihydro-1H-isoindol-1-one] | 163 nM
COc1cc(C(=O)N2CC3CCC2[C@@H]3N)cc2nc(-c3cc4cccnc4n3CC3CC3)n(C[C@@H]3CCN(c4nccnc4C#N)C3)c12 (stereo partly drawn) [Example 212, 3-[(3R)-3-({5-[(1R,4R,7R)-7-amino-2-azabicyclo[2.2.1]heptane-2-carbonyl]-2-[1-(cyclopropylmethyl)-1H-pyrrolo[2,3-b]pyridin-2-yl]-7-methoxy-1H-1,3-benzodiazol-1-yl}methyl)pyrrolidin-1-yl]pyrazine-2-carbonitrite] | 81 nM
COc1cc(C(=O)N2C[C@H]3CC[C@@H]2[C@@H]3N)cc2nc(-c3cc4ccccc4n3CC3CC3)n(CC3CN(C(=O)c4ccc(O)cc4)C3)c12 [Example 140, 4-[3-({5-[(1R,4R,7R)-7-amino-2-azabicyclo[2.2.1]heptane-2-carbonyl]-2-[1-(cyclopropylmethyl)-1H-indol-2-yl]-7-methoxy-1H-1,3-benzodiazol-1-yl}methyl)azetidine-1-carbonyl]phenol] | 14 nM
N[C@@H]1C2CCC1N(C(=O)c1ccc3c(c1)nc(-c1cc4cccnc4n1CC1CC1)n3CC1CN(C(=O)c3ccccc3)C1)C2 (stereo partly drawn) [Example 465, (7R)-2-{1-[(1-benozylazetidin-3-yl)methyl]-2-[1-(cyclopropylmethyl)-1H-pyrrolo[2,3-b]pyridin-2-yl]-1H-1,3-benzodiazole-5-carbonyl}-2-azabicyclo[2.2.1]heptan-7-amine] | 83 nM
N[C@@H]1C2CCC1N(C(=O)c1ccc3c(c1)nc(-c1cc4ccccc4n1CC1CC1)n3CC1CN(C(=O)c3ccccc3)C1)C2 (stereo partly drawn) [Example 170, (1R,4R,7R)-2-{1-[(1-benozylazetidin-3-yl)methyl]-2-[1-(cyclopropylmethyl)-1H-indol-2-yl]-1H-1,3-benzodiazol-5-carbonyl}-2-azabicyclo[2.2.1]heptan-7-amine] | 35 nM
COc1cc(C(=O)N2CC3CCC2[C@@H]3N)cc2nc(-c3cc4ccccc4n3CC3CC3)n(CC3CCS(=O)(=O)C3)c12 (mixture of isomers) [Example 258, rac-((7R)-7-amino-2-azabicyclo[2.2.1]heptan-2-yl)(2-(1-(cyclopropylmethyl)-1H-indol-2-yl)-1-((1,1-dioxidotetrahydrothiophen-3-yl)methyl)-7-methoxy-1H-benzo[d]imidazol-5-yl)methanone] | 43 nM
COc1cc(C(=O)N2C[C@H](N)C[C@@H](F)C2)cc2nc(-c3cc4ccccc4n3CC3CC3)n(CC3CCC(=O)N3)c12 (stereo partly drawn) [Example 283, 5-({5-[(3R,5R)-3-amino-5-fluoropiperidine-1-carbonyl]-2-[1-(cyclopropylmethyl)-1H-indol-2-yl]-7-methoxy-1H-1,3-benzodiazol-1-yl}methyl)pyrrolidin-2-one] | 895 nM
COc1cc(C(=O)N2C[C@H]3CC[C@@H]2[C@@H]3N)cc2nc(-c3cccn3CC3CC3)n(CC3CN(c4ccnc(C)n4)C3)c12 [Example 314, (1R,4R,7R)-2-{2-[1-(cyclopropylmethyl)-1H-pyrrol-2-yl]-7-methoxy-1-{[1-(2-methylpyrimidin-4-yl)azetidin-3-yl]methyl}-1H-1,3-benzodiazole-5-carbonyl}-2-azabicyclo[2.2.1]heptan-7-amine] | 552 nM
COc1cc(C(=O)N2CC3CCC2[C@@H]3N)cc2nc(-c3cc4ccccc4n3CC3CC3)n(CC3CN(C(=O)c4cnc(C#N)nc4)C3)c12 (stereo partly drawn) [Example 463, 5-[3-({5-[(7R)-7-amino-2-azabicyclo[2.2.1]heptane-2-carbonyl]-2-[1-(cyclopropylmethyl)-1H-indol-2-yl]-7-methoxy-1H-1,3-benzodiazol-1-yl}methyl)azetidine-1-carbonyl]pyrimidine-2-carbonitrile] | 73 nM
COc1cc(C(=O)N2CC3CCC2[C@@H]3N)cc2nc(-c3cc4ccccc4n3CC3CC3)n(CC3CN(C(=O)c4ccnc(F)c4)C3)c12 (stereo partly drawn) [Example 419, (7R)-2-{2-[1-(cyclopropylmethyl)-1H-indol-2-yl]-1-{[1-(2-fluoropyridine-4-carbonyl)azetidin-3-yl]methyl}-7-methoxy-1H-1,3-benzodiazole-5-carbonyl}-2-azaticyclo[2.2.1]heptan-7-amine] | 16 nM
COc1cc(C(=O)N2CC3CCC2[C@@H]3N)cc2nc(-c3cc4ccccc4n3CC3CC3)n(CC3CN(C(=O)[C@@H]4C[C@H]4c4ccccc4)C3)c12 (stereo partly drawn) [Example 162, (1R,4R,7R)-2-{2-[1-(cyclopropylmethyl)-1H-indol-2-yl]-7-methoxy-1-({1-[(1R,2R)-2-phenylcyclopropanecarbonyl]aze-tidin-3-yl}methyl)-1H-1,3-benzodiazole-5-carbonyl}-2-azabicyclo[2.2.1]heptan-7-amine] | 25 nM
COc1cncc(-n2cc(Cn3c(-c4cc5ccccc5n4CC4CC4)nc4cc(C(=O)N5CC6CCC5[C@@H]6N)cc(OC)c43)cn2)c1 (stereo partly drawn) [Example 349, (7R)-2-{2-[1-(cyclopropylmethyl)-1H-indol-2-yl]-7-methoxy-1-{[1-(5-methoxypyridin-3-yl)-1H-pyrazol-4-yl]methyl}-1H-1,3-benzodiazole-5-carbonyl)-2-azabicyclo[2.2.1]heptan-7-amine] | 15 nM
COc1cc(C(=O)N2C[C@H]3CC[C@@H]2[C@@H]3N)cc2nc(-c3cc4cccnc4n3CC3CC3)n(C3CN(C(=O)c4ccnc(N)n4)C3)c12 [Example 101, (1R,4R,7R)-2-{1-[1-(2-aminopyrimidine-4-carbonyl)azetidin-3-yl]-2-[1-(cyclopropylmethyl)-1H-pyrrolo[2,3-b]pyridin-2-yl]-7-methoxy-1H-1,3-benzodiazole-5-carbonyl}-2-azabicyclo[2.2.1]heptan-7-amine] | 125 nM
COc1cc(C(=O)N2CC3CCC2[C@@H]3N)cc2nc(-c3cc4ccccc4n3CC3CC3)n(CC3CC3c3ccccc3)c12 (stereo partly drawn) [Example 479, (7R)-2-{2-[1-(cyclopropylmethyl)-1H-indol-2-yl]-7-methoxy-1-[(2-phenylcyclopropyl)methyl]-1H-1,3-benzodiazole-5-carbonyl}-2-azabicyclo[2.2.1]heptan-7-amine] | 212 nM
COc1cc(C(=O)N2C[C@H]3CC[C@@H]2[C@@H]3N)cc2nc(-c3cc4cccnc4n3CC3CC3)n(C[C@@H]3CCN(c4cncc(C#N)c4)C3)c12 [Example 211, 5-[(3R)-3-({5-[(1R,4R,7R)-7-amino-2-azabicyclo[2.2.1]heptane-2-carbonyl]-2-[1-(cyclopropylmethyl)-1H-pyrrolo[2,3-b]pyridin-2-yl]-7-methoxy-1H-1,3-benzodiazol-1-yl}methyl)pyrrolidin-1-yl]pyridine-3-carbonitrile] | 80 nM
